Results reported in paper PMC4287394 (Clinical cancer research : an official journal of the …, 2014).

How the values were obtained:
[1] = Plasma pharmacokinetics in patients; type: in vivo, human; conditions: for half-life / AUC(0-t) / Cmax / Tmax: human, plasma; for AUC(0-t): AUC 0-24, geometric mean; for Cmax: geometric mean; for Tmax: median
[2] = tested on: phospho-AKT (Serine 473) in tumor tissue; experiment: Phospho-AKT immunohistochemistry in paired tumor biopsies; type: in vivo, human
[3] = tested on: PI3K signaling; experiment: Multimodal pharmacodynamic assessment; type: in vivo, human; conditions: regardless of molecular genetic status
[4] = tested on: plasma glucose; conditions: 330mg, cycle 1 day 1, 1 hour from baseline
[5] = tested on: purified recombinant human PI3K p110γ; conditions: read-out: IC50 p110γ; purified recombinant human PI3K isoforms; cited from earlier work
[6] = oral, 15 mg, Day 1, 15 mg QD, 4 patients
[7] = oral, 15 mg, Day 15, 15 mg QD, 4 patients
[8] = oral, 30 mg, Day 1, 30 mg QD, 3 patients
[9] = oral, 30 mg, Day 15, 30 mg QD, 3 patients
[10] = oral, 45 mg, Day 1, 45 mg QD, 4 patients
[11] = oral, 45 mg, Day 15, 45 mg QD, 4 patients
[12] = oral, 60 mg, Day 1, 60 mg QD, 4 patients
[13] = oral, 60 mg, Day 15, 60 mg QD, 3 patients
[14] = oral, 80 mg, Day 1, 80 mg QD, 3 patients
[15] = oral, 80 mg, Day 15, 80 mg QD, 3 patients
[16] = oral, 100 mg, Day 1, 100 mg QD, 5 patients
[17] = oral, 100 mg, Day 15, 100 mg QD, 3 patients
[18] = oral, 130 mg, Day 1, 130 mg QD, 3 patients
[19] = oral, 130 mg, Day 15, 130 mg QD, 3 patients
[20] = oral, 180 mg, Day 1, 180 mg QD, 3 patients
[21] = oral, 180 mg, Day 15, 180 mg QD, 3 patients
[22] = oral, 245 mg, Day 1, 245 mg QD, 3 patients
[23] = oral, 245 mg, Day 15, 245 mg QD, 3 patients
[24] = oral, 330 mg, Day 1, 330 mg QD, 17 patients
[25] = oral, 330 mg, Day 15, 330 mg QD, 17 patients
[26] = oral, 340 mg, Day 1, 340 mg QD, 7 patients
[27] = oral, 340 mg, Day 15, 340 mg QD, 6 patients
[28] = oral, 400 mg, Day 1, 400 mg QD, 1 patient
[29] = oral, 450 mg, Day 1, 450 mg QD, 3 patients
[30] = oral, 450 mg, Day 15, 450 mg QD, 3 patients

CS(=O)(=O)N1CCN(Cc2cc3nc(-c4cccc5[nH]ncc45)nc(N4CCOCC4)c3s2)CC1 [pictilisib, 2-(1H-indazol-4-yl)-6-(4-methanesulfonyl-piperazin-1-ylmethyl)-4-morpholin-4-yl-t hieno[3,2-d]pyrimidine]
Increase in exposure (Cmax and AUC0-24) with dose ([1]; across the dose levels studied, 15-450mg): dose-proportional | half-life ([1]; oral): 13.1 to 24.1 h | half-life ([1]; oral, 15 mg): 19.2 h | AUC(0-t) [1, 6]: 0.978 µM·h | AUC(0-t) [1, 7]: 1.35 µM·h | Cmax [1, 6]: 112 nM | Cmax [1, 7]: 116 nM | Tmax [1, 6]: 2 h | Tmax [1, 7]: 1.5 h | half-life ([1]; oral, 30 mg): 24.1 h | AUC(0-t) [1, 8]: 1.18 µM·h | AUC(0-t) [1, 9]: 1.9 µM·h | Cmax [1, 8]: 144 nM | Cmax [1, 9]: 179 nM | Tmax [1, 8]: 2 h | Tmax [1, 9]: 1 h | half-life ([1]; oral, 45 mg): 19.5 h | AUC(0-t) [1, 10]: 2.77 µM·h | AUC(0-t) [1, 11]: 4.09 µM·h | Cmax [1, 10]: 362 nM | Cmax [1, 11]: 436 nM | Tmax [1, 10]: 2 h | Tmax [1, 11]: 2 h | half-life ([1]; oral, 60 mg): 18.8 h | AUC(0-t) [1, 12]: 2.02 µM·h | AUC(0-t) [1, 13]: 2.78 µM·h | Cmax [1, 12]: 242 nM | Cmax [1, 13]: 270 nM | Tmax [1, 12]: 2 h | Tmax [1, 13]: 3 h | half-life ([1]; oral, 80 mg): 20.1 h | AUC(0-t) [1, 14]: 5.45 µM·h | AUC(0-t) [1, 15]: 9.86 µM·h | Cmax [1, 14]: 632 nM | Cmax [1, 15]: 779 nM | Tmax [1, 14]: 2 h | Tmax [1, 15]: 3 h | half-life ([1]; oral, 100 mg): 14.6 h | AUC(0-t) [1, 16]: 3.19 µM·h | AUC(0-t) [1, 17]: 5.64 µM·h | Cmax [1, 16]: 362 nM | Cmax [1, 17]: 751 nM | Tmax [1, 16]: 2 h | Tmax [1, 17]: 2 h | half-life ([1]; oral, 130 mg): 13.1 h | AUC(0-t) [1, 18]: 2.99 µM·h | AUC(0-t) [1, 19]: 5.03 µM·h | Cmax [1, 18]: 359 nM | Cmax [1, 19]: 457 nM | Tmax [1, 18]: 2 h | Tmax [1, 19]: 1 h | half-life ([1]; oral, 180 mg): 17.1 h | AUC(0-t) [1, 20]: 5.95 µM·h | AUC(0-t) [1, 21]: 8.25 µM·h | Cmax [1, 20]: 611 nM | Cmax [1, 21]: 783 nM | Tmax [1, 20]: 2 h | Tmax [1, 21]: 1 h | half-life ([1]; oral, 245 mg): 16.8 h | AUC(0-t) [1, 22]: 8.18 µM·h | AUC(0-t) [1, 23]: 11.3 µM·h | Cmax [1, 22]: 994 nM | Cmax [1, 23]: 1370 nM | Tmax [1, 22]: 2 h | Tmax [1, 23]: 1 h | half-life ([1]; oral, 330 mg): 15.7 h | AUC(0-t) [1, 24]: 14.4 µM·h | AUC(0-t) [1, 25]: 22.8 µM·h | Cmax [1, 24]: 1520 nM | Cmax [1, 25]: 2070 nM | Tmax [1, 24]: 2 h | Tmax [1, 25]: 3 h | half-life ([1]; oral, 340 mg): 20.9 h | AUC(0-t) [1, 26]: 14.9 µM·h | AUC(0-t) [1, 27]: 16.5 µM·h | Cmax [1, 26]: 1680 nM | Cmax [1, 27]: 1950 nM | Tmax [1, 26]: 2 h | Tmax [1, 27]: 1 h | half-life ([1]; oral, 400 mg): 14.8 h | AUC(0-t) [1, 28]: 15.6 µM·h | Cmax [1, 28]: 1650 nM | Tmax [1, 28]: 2 h | half-life ([1]; oral, 450 mg): 15 h | AUC(0-t) [1, 29]: 13.9 µM·h | AUC(0-t) [1, 30]: 23.5 µM·h | Cmax [1, 29]: 1950 nM | Cmax [1, 30]: 2640 nM | Tmax [1, 29]: 2 h | Tmax [1, 30]: 2 h | Tmax ([1]; po, fasting, all doses): 2 h | Decrease in AKT phosphorylation in tumor biopsies ([2]; AUC >20uM.hr on day 15, 2 of 3 patients): 100% | Suppression of phosphorylated serine-473 AKT in tumor ([2]; doses associated with AUC >20uM.hr): > 90% | Dose levels with on-target pharmacodynamic activity [3]: ≥ 100 mg | Mean fold-change (post- over pre-treatment) in plasma glucose [4]: 1.18 (95%CI: 1.10-1.26) | IC50 [5]: 75 nM
